{"source": "patent US20210255193A1", "about": "“LYSINE REACTIVE PROBES AND USES THEREOF” (The Scripps Research Institute, priority 2017, published 2021)", "test_in_all_cases": "competitive isoTOP-ABPP", "type_in_all_cases": "binding", "key": {"[1]": {"biological_target": "T1, EEF1A1 Elongation factor 1-alpha 1 (Homo sapiens, UniProt P68104)", "T1 construct": "isoTOP-ABPP experiments performed in cell lysates (in vitro); endogenous in cells; host or cells: soluble proteome of human cancer cell lines (MDA-MB-231, Ramos, Jurkat)", "T1 sequence (P68104 1-462)": "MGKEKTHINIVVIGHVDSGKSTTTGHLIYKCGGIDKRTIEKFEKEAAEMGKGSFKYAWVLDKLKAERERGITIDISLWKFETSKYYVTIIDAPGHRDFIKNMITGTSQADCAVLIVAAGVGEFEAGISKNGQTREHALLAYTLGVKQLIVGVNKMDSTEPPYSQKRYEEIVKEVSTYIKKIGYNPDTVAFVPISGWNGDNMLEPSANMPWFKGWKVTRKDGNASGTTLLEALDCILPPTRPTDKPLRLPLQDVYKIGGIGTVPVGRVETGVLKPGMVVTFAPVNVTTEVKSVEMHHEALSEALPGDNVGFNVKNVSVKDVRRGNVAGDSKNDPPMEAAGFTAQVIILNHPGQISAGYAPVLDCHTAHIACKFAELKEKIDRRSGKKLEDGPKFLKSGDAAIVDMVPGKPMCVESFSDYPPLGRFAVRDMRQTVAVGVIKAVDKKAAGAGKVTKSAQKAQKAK", "conditions": "for isoTOP-ABPP ratio (R) at liganded lysine P68104_K84 / isoTOP-ABPP reactivity ratio at lysine P68104_K84: 50 uM, in vitro; for isoTOP-ABPP ratio (R) at liganded lysine P68104_K84: sol, 231; for isoTOP-ABPP reactivity ratio at lysine P68104_K84: 231 sol; for isoTOP-ABPP ratio, lysine P68104_K84: 100 uM_231_sol_in vitro", "outline": "(§1)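 Lysate + fragment (50 μM activated ester / 100 μM guanidinylating agent) or DMSO → 0.1 mM STP-alkyne, 1 h, RT → CuAAC to TEV tags (compound light, DMSO heavy) → LC-MS. R = heavy/light MS1 area; liganded lysine if R≥4.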"}, "[2]": {"biological_target": "T2, SNX8 Sorting nexin-8 (Homo sapiens, UniProt Q9Y5X2)", "T2 construct": "endogenous in cells; host or cells: MDA-MB-231 lysate", "T2 sequence (Q9Y5X2 1-465)": "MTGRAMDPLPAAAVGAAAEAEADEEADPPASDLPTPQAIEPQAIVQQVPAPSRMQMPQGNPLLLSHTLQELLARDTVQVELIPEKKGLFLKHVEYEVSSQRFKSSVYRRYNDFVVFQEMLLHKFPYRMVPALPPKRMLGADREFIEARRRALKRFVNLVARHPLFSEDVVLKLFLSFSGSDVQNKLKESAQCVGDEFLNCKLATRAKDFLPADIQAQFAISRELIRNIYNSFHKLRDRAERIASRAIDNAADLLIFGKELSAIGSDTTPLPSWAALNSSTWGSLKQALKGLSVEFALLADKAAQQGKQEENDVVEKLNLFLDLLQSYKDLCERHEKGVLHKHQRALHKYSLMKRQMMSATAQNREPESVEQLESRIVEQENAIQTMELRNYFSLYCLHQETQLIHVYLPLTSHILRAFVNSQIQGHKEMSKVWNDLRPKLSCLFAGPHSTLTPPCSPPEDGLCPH", "conditions": "for isoTOP-ABPP ratio (R) at liganded lysine Q9Y5X2_K316 / isoTOP-ABPP reactivity ratio at lysine Q9Y5X2_K316: 50 uM, in vitro; for isoTOP-ABPP ratio (R) at liganded lysine Q9Y5X2_K316: sol, 231; for isoTOP-ABPP ratio, lysine Q9Y5X2_K316: 50 uM_231_sol_in vitro; for isoTOP-ABPP reactivity ratio at lysine Q9Y5X2_K316: 231 sol", "outline": "as §1"}, "[3]": {"biological_target": "T3, HAUS4 HAUS augmin-like complex subunit 4 (Homo sapiens, UniProt Q9H6D7)", "T3 construct": "endogenous in cells; host or cells: MDA-MB-231 (soluble fraction of lysate)", "T3 sequence (Q9H6D7 1-363)": "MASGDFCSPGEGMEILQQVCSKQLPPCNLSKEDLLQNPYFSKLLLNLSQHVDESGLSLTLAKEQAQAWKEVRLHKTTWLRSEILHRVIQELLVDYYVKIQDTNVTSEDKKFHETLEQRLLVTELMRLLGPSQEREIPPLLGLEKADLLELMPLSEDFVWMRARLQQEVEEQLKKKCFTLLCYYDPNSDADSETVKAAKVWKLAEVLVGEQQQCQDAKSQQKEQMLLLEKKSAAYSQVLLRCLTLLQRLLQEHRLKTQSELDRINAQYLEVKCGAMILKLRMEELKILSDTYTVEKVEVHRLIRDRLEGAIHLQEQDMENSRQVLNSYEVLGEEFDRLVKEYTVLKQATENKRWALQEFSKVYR", "conditions": "for isoTOP-ABPP ratio (R) at liganded lysine Q9H6D7_K271 / R value (DMSO/fragment) for probe 1 labeling / isoTOP-ABPP reactivity ratio at lysine Q9H6D7_K271: 50 uM, in vitro; for isoTOP-ABPP ratio (R) at liganded lysine Q9H6D7_K271: sol, 231; for R value (DMSO/fragment) for probe 1 labeling: Q9H6D7_K271; for R value (DMSO/fragment) for probe 1 labeling / isoTOP-ABPP reactivity ratio at lysine Q9H6D7_K271: 231 sol", "outline": "as §1"}}, "data": [{"smiles": "O=C(CCc1coc2cc(F)ccc2c1=O)Oc1ccc([N+](=O)[O-])cc1[N+](=O)[O-]", "note": "[fragment 36, 2,4-Dinitrophenyl 3-(7-fluoro-4-oxo-4H-chromen-3-yl)propanoate]", "values": [{"measurement": "isoTOP-ABPP ratio (R) at liganded lysine P68104_K84", "setting": "[1]", "result": 0.7}, {"measurement": "isoTOP-ABPP ratio (R) at liganded lysine Q9Y5X2_K316", "setting": "[2]", "result": 3.6}]}, {"smiles": "O=C(Oc1ccc([N+](=O)[O-])cc1[N+](=O)[O-])c1ccccc1Nc1cccc(C(F)(F)F)c1", "note": "[fragment 40, 2,4-Dinitrophenyl 2-((3-(trifluoromethyl)phenyl)amino)benzoate]", "values": [{"measurement": "isoTOP-ABPP ratio (R) at liganded lysine Q9Y5X2_K316", "setting": "[2]", "result": 2.0}, {"measurement": "isoTOP-ABPP ratio (R) at liganded lysine Q9H6D7_K271", "setting": "[3]", "result": 0.7}]}, {"smiles": "Cn1cc(CC(=O)Oc2c(F)c(F)c(F)c(F)c2F)c2ccccc21", "note": "[fragment 22, Pentafluorophenyl 2-(1-methyl-1H-indol-3-yl)acetate]", "values": [{"measurement": "R value (DMSO/fragment) for probe 1 labeling", "setting": "[3]", "result": 0.9}]}, {"smiles": "O=C(ON1C(=O)CCC1=O)c1cc(C(F)(F)F)cc(C(F)(F)F)c1", "note": "[fragment 46, 3,5-Bis(trifluoromethyl)benzoic acid NHS ester]", "values": [{"measurement": "isoTOP-ABPP ratio, lysine Q9Y5X2_K316", "setting": "[2]", "result": 2.7}]}, {"smiles": "NC(=O)c1cc(C(F)(F)F)cc(C(F)(F)F)c1", "note": "[fragment 51, reference compound]", "values": [{"measurement": "isoTOP-ABPP ratio, lysine Q9Y5X2_K316", "setting": "[2]", "result": 1.2}]}, {"smiles": "COc1cc(CCC(=O)Oc2ccc([N+](=O)[O-])cc2[N+](=O)[O-])cc(OC)c1OC", "note": "[fragment 33, 2,4-Dinitrophenyl 3-(3,4,5-trimethoxyphenyl)propanoate]", "values": [{"measurement": "isoTOP-ABPP reactivity ratio at lysine Q9Y5X2_K316", "setting": "[2]", "result": 4.1}]}, {"smiles": "O=C(Oc1ccc([N+](=O)[O-])cc1[N+](=O)[O-])C(c1ccccc1)c1ccccc1", "note": "[fragment 30, 2,4-Dinitrophenyl 2,2-diphenylacetate]", "values": [{"measurement": "isoTOP-ABPP reactivity ratio at lysine P68104_K84", "setting": "[1]", "result": 0.5}, {"measurement": "isoTOP-ABPP reactivity ratio at lysine Q9H6D7_K271", "setting": "[3]", "result": 1.0}]}, {"smiles": "O=C(Oc1ccc([N+](=O)[O-])cc1[N+](=O)[O-])c1cc(C(F)(F)F)cc(C(F)(F)F)c1", "note": "[fragment 31, 2,4-Dinitrophenyl 3,5-bis(trifluoromethyl)benzoate]", "values": [{"measurement": "isoTOP-ABPP reactivity ratio at lysine P68104_K84", "setting": "[1]", "result": 0.4}]}, {"smiles": "O=C(CCc1cn(-c2ccccc2)nc1-c1ccccc1)Oc1ccc([N+](=O)[O-])cc1[N+](=O)[O-]", "note": "[fragment 29, 2,4-Dinitrophenyl 3-(1,3-diphenyl-1H-pyrazol-4-yl)propanoate]", "values": [{"measurement": "isoTOP-ABPP reactivity ratio at lysine P68104_K84", "setting": "[1]", "result": 20.0}, {"measurement": "isoTOP-ABPP reactivity ratio at lysine Q9Y5X2_K316", "setting": "[2]", "result": 3.4}]}, {"smiles": "CC(=O)Oc1ccc([N+](=O)[O-])cc1[N+](=O)[O-]", "note": "[fragment 43, 2,4-Dinitrophenyl acetate]", "values": [{"measurement": "isoTOP-ABPP ratio (R) at liganded lysine P68104_K84", "setting": "[1]", "result": 0.7}]}, {"smiles": "CC(C)(C)OC(=O)N=C(NC(=O)OC(C)(C)C)n1cccn1", "note": "[fragment 50, reference compound]", "values": [{"measurement": "isoTOP-ABPP ratio, lysine P68104_K84", "setting": "[1]", "result": 1.3}, {"measurement": "isoTOP-ABPP ratio, lysine Q9H6D7_K271", "setting": "[3]; 100 uM_231_sol_in vitro", "result": 4.3}]}, {"smiles": "N#Cc1ccc(C(=O)Oc2ccc([N+](=O)[O-])cc2[N+](=O)[O-])cc1", "note": "[fragment 44, 2,4-Dinitrophenyl 4-cyanobenzoate]", "values": [{"measurement": "isoTOP-ABPP ratio, lysine Q9H6D7_K271", "setting": "[3]; 50 uM_231_sol_in vitro", "result": 0.9}]}, {"smiles": "O=C(Oc1ccc([N+](=O)[O-])cc1[N+](=O)[O-])c1ccc(-c2ccccc2)cc1", "note": "[fragment 37, 2,4-Dinitrophenyl [1,1′-biphenyl]-4-carboxylate]", "values": [{"measurement": "isoTOP-ABPP ratio (R) at liganded lysine P68104_K84", "setting": "[1]", "result": 20.0}, {"measurement": "isoTOP-ABPP ratio (R) at liganded lysine Q9H6D7_K271", "setting": "[3]", "result": 0.7}]}, {"smiles": "O=C(CCc1ccc2c(c1)OCO2)Oc1ccc([N+](=O)[O-])cc1[N+](=O)[O-]", "note": "[fragment 45, 2,4-Dinitrophenyl 3-(benzo[d][1,3]dioxol-5-yl)propanoate]", "values": [{"measurement": "isoTOP-ABPP ratio, lysine Q9H6D7_K271", "setting": "[3]; 50 uM_231_sol_in vitro", "result": 1.1}]}, {"smiles": "COC(=O)NC(=NC(=O)OCC1c2ccccc2-c2ccccc21)n1cccn1", "note": "[fragment 49, N-Methoxycarbonyl-N′-9-fluorenylmethoxycarbonyl-pyrazole-1-carboxamidine]", "values": [{"measurement": "isoTOP-ABPP ratio, lysine P68104_K84", "setting": "[1]", "result": 1.2}]}, {"smiles": "O=C(Oc1c(F)c(F)c(F)c(F)c1F)C(c1ccccc1)c1ccccc1", "note": "[fragment 20, Pentafluorophenyl 2,2-diphenylacetate]", "values": [{"measurement": "R value (DMSO/fragment) for probe 1 labeling", "setting": "[3]", "result": 0.7}]}, {"smiles": "O=C(Oc1c(F)c(F)c(F)c(F)c1F)C1CCN(C(=O)OCc2ccccc2)CC1", "note": "[fragment 24, 1-Benzyl 4-(pentafluorophenyl) piperidine-1,4-dicarboxylate]", "values": [{"measurement": "isoTOP-ABPP reactivity ratio at lysine Q9H6D7_K271", "setting": "[3]", "result": 0.8}]}, {"smiles": "Cn1cc(CC(=O)Oc2ccc([N+](=O)[O-])cc2[N+](=O)[O-])c2ccccc21", "note": "[fragment 32, 2,4-Dinitrophenyl 2-(1-methyl-1H-indol-3-yl)acetate]", "values": [{"measurement": "isoTOP-ABPP reactivity ratio at lysine P68104_K84", "setting": "[1]", "result": 0.4}, {"measurement": "isoTOP-ABPP reactivity ratio at lysine Q9H6D7_K271", "setting": "[3]", "result": 1.0}]}, {"smiles": "O=C(Oc1ccc([N+](=O)[O-])cc1[N+](=O)[O-])c1ccc(Oc2ccccc2)cc1", "note": "[fragment 39, 2,4-Dinitrophenyl 4-phenoxybenzoate]", "values": [{"measurement": "isoTOP-ABPP ratio (R) at liganded lysine Q9Y5X2_K316", "setting": "[2]", "result": 1.4}]}]}
